Patent US8785692B2, “Substituted phenylamidines and the use thereof as fungicides” (priority 2007, dated 2014)
Where two headings read alike, the source gives them in different places.

Columns and labels:
[1] = logP (neutral / acidic, pH 2.3)
Sphaerotheca fuliginea = assay: Sphaerotheca test (cucumber) / protective; type: in vivo; settings: Podosphaera fuliginea, 168 h, read-out: efficacy
Description: Sphaerotheca Test (Cucumber)/Protective
Solvent: 49 parts by weight of N,N-dimethylformamide
Emulsifier: 1 part by weight of alkylaryl polyglycol ether
To produce a suitable preparation of active compound, 1 part by weight of active compound is mixed with the stated amounts of solvent and emulsifier, and the concentrate is diluted with water to the desired concentration.
To test for protective activity, young cucumber plants are sprayed with the active compound preparation at the stated application rate. 1 day after the treatment, the plants are inoculated with a spore suspension of Sphaerotheca fuliginea. The plants are then placed in a greenhouse at 70% relative atmospheric humidity and a temperature of 23° C.
Evaluation is carried out 7 days after the inoculation. 0% means an efficacy which corresponds to that of the control, whereas an efficacy of 100% means that no infection is observed.

[2] = cucumber, protective, 500 ppm active compound, evaluation 7 days after inoculation

Row | logP [1] | logP ([1]; pH 2.3) | Compound | pest or weed control at 500 ppm (Sphaerotheca fuliginea; [2]) [%] | pest or weed control at 500 ppm (Sphaerotheca fuliginea) [%] | logP acidic ([1]; acidic) | logP neutral ([1]; neutral)
1 | 4.71 | 2.02 | CCN(C)C=Nc1cc(C)c(/C=N/OCc2ccc3c(c2)OCOC3)cc1C [Compound 4, N′-(4-{(E)-[(4H-1,3-benzodioxin-7-ylmethoxy)imino]methyl}-2,5-dimethylphenyl)-N-ethyl-N-methylimidoformamide] | – | – | – | –
2 | 5.77 | 2.69 | CCN(C)C=Nc1cc(C)c(/C(C)=N/OCc2cccc(Oc3ccccc3)c2)cc1C [Compound 22, N′-(2,5-dimethyl-4-{(1E)-N-[(3-phenoxybenzyl)oxy]ethanimidoyl}phenyl)-N-ethyl-N-methylimidoformamide] | ≥ 70 | – | – | –
3 | 5.1 | 2.3 | CCN(C)C=Nc1cc(C)c(/C(C)=N/OCc2nc(-c3ccccc3)cs2)cc1C [Compound 21, N′-(2,5-dimethyl-4-{(1E)-N-[(4-phenyl-1,3-thiazol-2-yl)meth-oxy]ethanimidoyl}phenyl)-N-ethyl-N-methylimidoformamide] | ≥ 70 | – | – | –
4 | – | 1.91 | CCN(C)C=Nc1cc(C)c(/C(C)=N/Nc2ccccc2F)cc1C [Compound 45, N-ethyl-N′-(4-{(1E)-1-[2-(2-fluorophenyl)hydrazinylidene]ethyl}-2,5-dimethylphenyl)-N-methylimidoformamide] | – | – | – | –
5 | – | 4.22 | Cc1cc(C=NOCc2ccccc2)c(C)cc1N [4-(Benzyloxyiminomethyl)-2,5-dimethylaniline] | – | – | – | –
6 | 3.95 | 1.67 | CCN(C)C=Nc1cc(C)c(/C=N/OCC2CC2)cc1C [Compound 47, N′-(4-{(E)-[(cyclopropylmethoxy)imino]methyl}-2,5-dimethylphenyl)-N-ethyl-N-methylimidoformamide] | – | – | – | –
7 | 5.33 | 2.38 | CCN(C)C=Nc1cc(C)c(/C(C)=N/OC(C2CC2)C2CC2)cc1C [Compound 20, N′-{4-[(1E)-N-(dicyclopropylmethoxy)ethanimidoyl]-2,5-dimethylphenyl}-N-ethyl-N-methylimidoformamide] | ≥ 70 | – | – | –
8 | 5.51 | 3.75 | CCN(C)C=Nc1cc(C)c(/C(C)=N/OCc2c(Cl)cccc2Cl)cc1C [Compound 29, N′-(4-{(1E)-N-[(2,6-dichlorobenzyl)oxy]ethanimidoyl}-2,5-dimethylphenyl)-N-ethyl-N-methylimidoformamide] | ≥ 70 | – | – | –
9 | 4.43 | 1.9 | CCCO/N=C(\C)c1cc(C)c(N=CN(C)CC)cc1C [Compound 37, N′-{4-[(1E)-N-(n-propoxy)ethanimidoyl]-2,5-dimethylphenyl}-N-ethyl-N-methylimidoformamide] | ≥ 70 | – | – | –
10 | 4.41 | 1.76 | CCN(C)C=Nc1cc(C)c(/C=N/OC(C)C)cc1C [Compound 40, N-ethyl-N′-{4-[(E)-(isopropoxyimino)methyl]-2,5-dimethylphenyl}-N-methylimidoformamide] | ≥ 70 | – | – | –
11 | 4.24 | 1.88 | CCN(C)C=Nc1cc(C)c(/C(C)=N/OCC(F)(F)F)cc1C [Compound 17, N′-{2,5-dimethyl-4-[(1E)-N-(2,2,2-trifluoroethoxy)ethanimidoyl]phenyl}-N-ethyl-N-methylimidoformamide] | ≥ 70 | – | – | –
12 | 5.28 | 2.59 | CCN(C)C=Nc1cc(C)c(/C(C)=N/OCCOc2cccc(C(F)(F)F)c2)cc1C [Compound 34, N′-{2,5-dimethyl-4-[(1E)-N-{2-[3-(trifluoromethyl)phenoxy]ethoxy}ethan-imidoyl]phenyl}-N-ethyl-N-methylimidoformamide] | ≥ 70 | – | – | –
13 | – | – | N-(2,5-dimethyl-4-{(E)-[1-phenylethoxy]ethanimidoyl}phenyl)-N-ethyl-N-methylimidoformamide [Compound 27] | – | – | 2.39 | 5.09
14 | 3.05 | 1.43 | CCN(C)C=Nc1cc(C)c(/C(C)=N/OCOCCOC)cc1C [Compound 18, N′-{2,5-dimethyl-4-[(1E)-1-methyl-3,5,8-trioxa-2-azanon-1-en-1-yl]phenyl}-N-ethyl-N-methylimidoformamide] | – | – | – | –
15 | – | 1.34 | Cc1cc(C=O)c(C)cc1N [4-Amino-2,5-dimethylbenzaldehyde] | – | – | – | –
16 | 5.24 | 2.2 | CCN(C)C=Nc1cc(C)c(/C(C)=N/OC2CCCC2)cc1C [Compound 14, N′-{4-[(1E)-N-(cyclopentyloxy)ethanimidoyl]-2,5-dimethylphenyl}-N-ethyl-N-methylimidoformamide] | ≥ 70 | – | – | –
17 | – | 2.02 | CCN(C)C=Nc1cc(C)c(/C=N/OCc2ccccc2)cc1C [Compound 3, N′-(4-{(E)-[(benzyloxy)imino]methyl}-2,5-di-methylphenyl)-N-ethyl-N-methylimidoformamide] | ≥ 70 | – | – | –
18 | 4.65 | 2.07 | CCN(C)C=Nc1cc(C)c(/C(C)=N/OCc2ccccc2)cc1C [Compound 31, N′-(4-{(1E)-N—[benzyloxy]-ethanimidoyl}-2,5-dimethylphenyl)-N-ethyl-N-methylimidoformamide] | ≥ 70 | – | – | –
19 | – | 2.21 | CCN(C)C=Nc1cc(C)c(/C(C)=N/Oc2ccccc2)cc1C [Compound 11, N′-{2,5-dimethyl-4-[(1E)-N-phenoxyethanimidoyl]-phenyl}-N-ethyl-N-methylimidoformamide] | ≥ 70 | – | – | –
20 | 3.33 | 1.38 | CCN(C)C=Nc1cc(C)c(/C(C)=N/OC)cc1C [Compound 24, N-ethyl-N′-{4-[(1E)-N-methoxyethanimidoyl]-2,5-dimethylphenyl}-N-methylimidoformamide] | – | – | – | –
21 | 4 | 1.8 | C#CC(C)O/N=C(\C)c1cc(C)c(N=CN(C)CC)cc1C (centres unmarked) [Compound 15, N′-(2,5-dimethyl-4-{(1E)-N-[(1-methylprop-2-yn-1-yl)oxy]ethanimidoyl}phenyl)-N-ethyl-N-methylimidoformamide] | ≥ 70 | – | – | –
22 | 4.42 | 1.92 | CCN(C)C=Nc1cc(C)c(/C(C)=N/OC(C)C)cc1C [Compound 10, N-ethyl-N′-{4-[(1E)-N-isopropoxyethanimidoyl]-2,5-dimethylphenyl}-N-methylimidoformamide] | – | – | – | –
23 | 5.2 | 2.32 | CCN(C)C=Nc1cc(C)c(/C(C)=N/OC/C=C/c2ccccc2)cc1C [Compound 19, N′-{2,5-dimethyl-4-[(1E)-N-{[(2E)-3-phenylprop-2-en-1-yl]oxy}ethanimidoyl]phenyl}-N-ethyl-N-methylimidoformamide] | – | – | – | –
24 | – | 2.77 | Cc1cc(C=NOC(C)C)c(C)cc1N [4-(Isopropoxyiminomethyl)-2,5-dimethylaniline] | – | – | – | –
25 | 4.02 | 1.72 | C=CCO/N=C(\C)c1cc(C)c(N=CN(C)CC)cc1C [Compound 35, N′-{4-[(1E)-N-(allyloxy)ethanimidoyl]-2,5-dimethylphenyl}-N-ethyl-N-methylimidoformamide] | – | – | – | –
26 | 4.75 | 1.79 | CCN(C)C=Nc1cc(C)c(/C(C)=N/CCCC(C)(C)C)cc1C [Compound 46, N′-{4-[(1E)-N-(4,4-dimethylpentyl)ethanimidoyl]-2,5-dimethylphenyl}-N-ethyl-N-methylimido-formamide] | – | – | – | –

Row | Compound | logP [1] | logP ([1]; pH 2.3) | pest or weed control at 500 ppm (Sphaerotheca fuliginea; [2]) [%] | pest or weed control at 500 ppm (Sphaerotheca fuliginea) [%] | logP acidic ([1]; acidic) | logP neutral ([1]; neutral)
27 | CCN(C)C=Nc1cc(C)c(/C(C)=N/OC(C)c2ccc(Cl)cc2)cc1C (centres unmarked) [Compound 38, N′-(4-{(1E)-N-[1-(4-chlorophenyl)ethoxy]ethanimidoyl}-2,5-dimethylphenyl)-N-ethyl-N-methylimidoformamide] | 5.67 | 2.46 | – | – | – | –
28 | CCN(C)C=Nc1cc(C)c(/C=N/OCCC(C)(C)C)cc1C [Compound 48, N′-(4-{(E)-[(3,3-dimethylbutoxy)imino]methyl}-2,5-dimethylphenyl)-N-ethyl-N-methylimidoformamide] | 5.89 | 2.3 | – | – | – | –
29 | CCN(C)C=Nc1cc(C)c(/C(C)=N/OC(C)(C)C)cc1C [Compound 9, N-ethyl-N′-{4-[(1E)-N-tert-butoxyethanimidoyl]-2,5-dimethylphenyl}-N-methylimidoformamide] | 5.17 | 2.19 | – | – | – | –
30 | CCN(C)C=Nc1cc(C)c(/C=N/OC(C)(C)C)cc1C [Compound 39, N′-{4-[(E)-(tert-butoxyimino)methyl]-2,5-dimethylphenyl}-N-ethyl-N-methylimidoformamide] | 4.98 | 2.11 | – | ≥ 70 | – | –
31 | CCN(C)C=Nc1cc(C)c(/C(C)=N/OCC(C)C)cc1C [Compound 13, N-ethyl-N′-{4-[(1E)-N-isobutoxyethanimidoyl]-2,5-dimethylphenyl}-N-methylimidoformamide] | 4.98 | 2.22 | – | – | – | –
32 | CCN(C)C=Nc1cc(C)c(/C(C)=N/OCC[Si](C)(C)C)cc1C [Compound 44, N′-(2,5-dimethyl-4-{(1E)-N-[2-(trimethylsilyl)ethoxy]ethanimidoyl}phenyl)-N-ethyl-N-methylimidoformamide] | 6.21 | 2.76 | – | – | – | –
33 | CCO/N=C(\C)c1cc(C)c(N=CN(C)CC)cc1C [Compound 23, N-ethyl-N′-{4-[(1E)—N-ethoxyethanimidoyl]-2,5-dimethylphenyl}-N-methylimidoformamide] | 3.86 | 1.6 | – | – | – | –
34 | CCN(C)C=Nc1cc(C)c(/C(C)=N/OCC=C(C)C)cc1C [Compound 33, N′-(2,5-dimethyl-4-{(1E)-N-[(3-methylbut-2-en-1-yl)oxy]ethanimidoyl}phenyl)-N-ethyl-N-methylimidoformamide] | 4.86 | 2.24 | – | ≥ 70 | – | –
